This is an account of results in paper PMC13197777, “Distinct 2-phenylimidazo[1,2-a]pyridine derivatives that inhibit breast cancer cell proliferation identified as AHR ligands” (iScience, 2026).

The test system of one data set is MCF-7 luc Y537S. Nature of the data set: Clonogenic assay (clonal expansion), MCF-7 cells with Y537S ER mutation. The class given is cell-based. Conditions: Homo sapiens, MCF7, 336 h. The method, then: (§1) Cells were seeded at a density of 1–2×10^3 cells/well in a 6-well plate and treated with increasing concentrations of the X compounds for 14–21 days. Medium and compounds were renewed every 7 days. The experiments were terminated by fixing the cells with methanol and the colonies formed were visualized after staining with 0.5% crystal violet (w/v) in 20% methanol (v/v). Plates were photographed and the area covered by the colonies was calculated using the ColonyArea Plugin for Fiji (RRID:SCR_003070).[20]

The test system of data set [1] is MCF-7 luc D538G and MCF-7 luc Y537S. The experiment in a line: Clonogenic assay, cells expressing the two mutant ERs (range over both). In kind it is cell-based. Conditions: Homo sapiens, MCF7, read-out: IC50 clonal expansion in cells expressing the two mutant ERs. Here is the method:
as §1

The subject of data set [2] is CTC-ITB-01 cells. The experiment in a line: cells. In kind it is cell-based. The note with it: for CC50: Homo sapiens, read-out: LC50. The method, then:
LC50 values were measured using the CyQUANT NF Cell Proliferation Assay Kit (Thermo Fisher). CTC-ITB-01 cells were plated at a density of 2x10^3 cells/well in 96-well plates and treated the following day with serial dilutions of the test compounds. After incubation for the indicated time, cells were stained with CyQUANT dye according to the manufacturer’s protocol and incubated at 37°C for 30 min. Fluorescence was measured using a Tecan Infinite M Nano+ (excitation: 485 nm; emission: 530 nm). For the calculation of the LC50 the fluorescence was plotted against the Log10 of the inhibitor concentration in nM as x values and the LC50 values were calculated with 95% confidence intervals (n = 4).

The test system of data set [3] is CTC-ITB-01 cells. Nature of the data set: Clonogenic assay of CTC-ITB-01 cells. In kind it is cell-based, human. The note with it: CTC-ITB-01, two weeks of treatment. Here is the method:
as §1

The test system of a further data set is PDxO#28. Nature of the data set: Organoid viability, CellTiter-Glo 3D. In kind it is cell-based, human. The note with it: PDxO#28 in 3D Matrigel, 7 days, increasing doses; same results in PDO#268 and PDO#480. The text has this: Organoids were generated from patients’ samples and from patient-derived xenograft (PDX) tumors, as previously described.[25] PDX were derived from BCRO#28, an ER^+ breast cancer sample collected from a treatment naive patient. PDO#268 was derived from BCRO#268, an ER^+ breast cancer sample collected from treatment naive patient. PDO#480 was derived from BCRO#480, an ER^+ breast cancer sample collected from a patient subjected to chemotherapy in neo-adjuvant setting. Briefly, tumors freshly explanted from mice were mechanically shredded, digested with collagenase (Merck) and filtered through a 100 μm strainer. Digested material (isolated cells and small cell clusters) was centrifuged and embedded in 3D-matrix drops (reduced growth factor Basement Membrane Extract, BME, R&D systems), then overlaid with breast cancer organoid medium.[25] For 3D survival curves under treatment, organoids were embedded in BME drops and, after 24 - 48 h, drugs were added. Fresh drug-containing medium was replaced on day 4. On day 7 of treatment, CellTiter-Glo 3D Cell Viability Assay (Promega) was added and luminescent signal from viable organoids was recorded on Infinite M1000 Pro instrument (Tecan).

The next data set concerns the target T1, AHR-Hsp90-XAP2 (Homo sapiens, UniProt P35869).
T1 construct: made in house
Nature of the data set: Thermal stability measurements (nano-DSF). In kind it is binding. The note with it: 2.5 μM protein, 12.5 μM compound. The method, then:
Thermal denaturation experiments of AHR complexes in the presence of compounds were performed using a Tycho NT.6 instrument (NanoTemper Technologies). Protein samples were prepared as previously described[67] and subsequently diluted in the buffer containing 20 mM Bis-Tris–HCl pH 7.0, 50 mM NaCl, 10 mM KCl, 10 mM MgCl2, 20 mM Na2MoO4 and 2 mM β-mercaptoethanol to a final protein concentration of 2.5 μM. Compound stock solutions were prepared at 20 mM in DMSO and added to the protein samples to yield a final concentration of 12.5 μM. For control measurements, DMSO was added to a final concentration of 5% (v/v). Following ligand or DMSO addition, the samples were gently mixed and incubated at room temperature for 10 min to allow equilibration. Thermal denaturation profiles were acquired over a temperature range of 35°C–95°C, with a heating rate of 1 °C per min. Fluorescence was monitored at emission wavelengths of 330 nm and 350 nm, and the data were analyzed as the first derivative of the fluorescence ratio (F330/F350) as a function of temperature. All experiments were performed in triplicate, and data were analyzed using the Tycho NT.6 software (NanoTemper Technologies) according to the manufacturer’s recommendations.
In general terms: In DSF a fluorescence change marks the thermal transition of the protein.

Data set [4] in a line: Compound stability in aqueous environment. The class given is physicochemical. Conditions: 12.5 μM, HEPES pH 7.4/acetonitrile 3:2, 1% DMSO, 21 °C, 5 days. Here is the method: The stability of the compounds was evaluated at a concentration of 12.5 μM in a 3:2 mixture of buffer (HEPES, 0.1 M, pH 7.4) and acetonitrile, with 1% DMSO. Acetonitrile was added because the concentration of 12.5 μM exceeded the thermodynamic solubility of the compounds in the buffer. This addition thereby prevented the formation of precipitates and a gradual decrease in compound concentration during the measurement. The resulting solution was stirred at 21 °C in a sealed vial (crimp neck vials, 5 mL, clear (Cat. No. 548-0611A) in combination with natural rubber septa (548-0565A) and aluminum crimp caps (548-3278A), VWR International) for 5 days. […] The AUC measured was subsequently plotted as a function of the incubation time (Figure S3). No signs of decomposition could be observed over the given time.

A further data set relates to ERα in MCF-7 cells. The experiment in a line: Immunoblot of ERα in MCF-7 cells. The class given is cell-based, human. Conditions: MCF-7, 48 h, increasing concentrations up to 1 μM. The method, then:
To determine the relative expression of proteins by Western blotting, cells were first washed with ice-cold phosphate buffered saline (PBS). Subsequently, they were lysed in ice-cold NP40 lysis buffer (1%NP-40, 50 mM Tris-HCl, pH 8.0, 150 mM NaCl, 5 mM Ethylenediaminetetraacetic acid [EDTA], 1 mM PMSF) on ice. DNA was degraded by sonification (five pulses at 50 amplitudes). Protein concentration was determined, and equal amounts of protein were separated on a 9% SDS-PAGE gel. The proteins were transferred onto nitrocellulose membrane by a standard Western blotting protocol and the membranes were incubated with the following antibodies: ERα (Santa Cruz Biotechnology, sc-8002, RRID: AB_627558) and PCNA (Santa Cruz Biotechnology, sc-56, RRID: AB_628110), followed by incubation with HRP labeled Goat anti-mouse Immunoglobulins (DAKO, P0447, RRID: AB_2617137).

For data set [5], the system named is ERα target genes (PGR, TFF1, PDZK1, GREB1). The experiment in a line: Quantitative RT-PCR of ER target genes in MCF-7 cells. Conditions: MCF-7, 1 μM, absence and presence of 10 nM E2, 24 h.

Like-named read-outs stand apart in the source and are kept apart here.

T1 sequence (P35869 11-437 limits assumed): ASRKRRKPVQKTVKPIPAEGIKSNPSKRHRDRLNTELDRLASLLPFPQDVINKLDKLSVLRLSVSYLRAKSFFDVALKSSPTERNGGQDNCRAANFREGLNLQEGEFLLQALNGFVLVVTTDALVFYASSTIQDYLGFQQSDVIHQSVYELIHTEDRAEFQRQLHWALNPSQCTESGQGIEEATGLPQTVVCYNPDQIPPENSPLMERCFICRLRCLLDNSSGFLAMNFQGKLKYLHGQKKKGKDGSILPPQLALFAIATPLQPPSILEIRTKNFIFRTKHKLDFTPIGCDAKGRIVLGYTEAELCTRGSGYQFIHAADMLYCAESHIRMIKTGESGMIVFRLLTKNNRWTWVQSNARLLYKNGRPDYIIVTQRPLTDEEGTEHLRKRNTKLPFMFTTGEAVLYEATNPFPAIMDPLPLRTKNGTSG
T1 sequence (P08238 whole entry partner): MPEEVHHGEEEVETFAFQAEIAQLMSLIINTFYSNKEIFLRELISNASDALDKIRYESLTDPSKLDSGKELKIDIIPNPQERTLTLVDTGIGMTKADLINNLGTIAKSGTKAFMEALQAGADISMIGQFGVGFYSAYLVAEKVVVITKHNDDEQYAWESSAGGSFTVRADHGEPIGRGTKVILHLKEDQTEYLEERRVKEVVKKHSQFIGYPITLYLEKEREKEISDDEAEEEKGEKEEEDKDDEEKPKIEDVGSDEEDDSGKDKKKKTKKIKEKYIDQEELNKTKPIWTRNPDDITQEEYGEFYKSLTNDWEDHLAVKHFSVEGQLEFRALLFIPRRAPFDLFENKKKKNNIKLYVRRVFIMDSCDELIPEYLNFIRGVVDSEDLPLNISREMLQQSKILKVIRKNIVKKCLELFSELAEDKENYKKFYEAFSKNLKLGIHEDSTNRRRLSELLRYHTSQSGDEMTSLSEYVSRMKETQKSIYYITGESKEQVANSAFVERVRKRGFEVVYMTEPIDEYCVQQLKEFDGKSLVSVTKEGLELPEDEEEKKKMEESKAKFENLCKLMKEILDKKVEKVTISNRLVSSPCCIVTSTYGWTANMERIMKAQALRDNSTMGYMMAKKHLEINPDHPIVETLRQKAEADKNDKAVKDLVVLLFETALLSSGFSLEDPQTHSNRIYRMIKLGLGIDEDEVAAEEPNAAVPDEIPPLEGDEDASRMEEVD
T1 sequence (O00170 whole entry partner): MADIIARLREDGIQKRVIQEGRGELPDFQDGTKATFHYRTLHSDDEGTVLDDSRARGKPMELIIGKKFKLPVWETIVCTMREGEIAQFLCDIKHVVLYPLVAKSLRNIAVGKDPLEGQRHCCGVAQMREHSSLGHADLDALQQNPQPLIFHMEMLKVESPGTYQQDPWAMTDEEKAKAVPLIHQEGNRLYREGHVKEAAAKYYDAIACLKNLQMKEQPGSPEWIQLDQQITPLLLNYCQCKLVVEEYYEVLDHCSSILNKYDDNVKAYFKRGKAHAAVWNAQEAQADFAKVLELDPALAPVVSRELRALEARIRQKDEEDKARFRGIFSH

A word on the IC50: it is the point on the concentration scale where inhibition reaches its midpoint. As for `Fc1ccc(-c2cn3cc(C(F)(F)F)cc(Cl)c3n2)cc1` [X15695], the IC50 with MCF-7 luc Y537S (read-out: IC50 clonal expansion, Figure 1B, MCF-7 luc Y537S, absence of E2, 14 days) was 7.82 nM; with MCF-7 luc Y537S (read-out: IC50 clonal expansion, Figure 1C, MCF-7 luc Y537S + 10 nM E2, 14 days), 6.41 nM; in the data set on MCF-7 luc Y537S (read-out: IC50 clonal expansion, Figure 1D, MCF-7 luc Y537S, absence of E2, 14 days), 7.82 nM; with MCF-7 luc Y537S (read-out: IC50 clonal expansion, Figure 1E, MCF-7 luc Y537S + 10 nM E2, 14 days), 6.41 nM; in [1] it was 7.82 to 11.6 nM. The “LC50 fold lower compared to fulvestrant” value in the data set on CTC-ITB-01 cells [2] (CTC-ITB-01, 48 h and 120 h) is listed as 20 fold. Besides, the results for the CC50 in the data set with CTC-ITB-01 cells [2] (48 h) and in the data set on CTC-ITB-01 cells [2] (120 h) were 400 nM and 300 nM, respectively. The “inhibition of clonal expansion compared to fulvestrant” value with CTC-ITB-01 cells [3] is recorded as “about three orders of magnitude more potent”. Besides, the “organoid viability (survival)” value with PDxO#28 was “significantly reduced survival in a dose-dependent manner”. The “thermal stabilization of AHR (nano-DSF)” value on AHR-Hsp90-XAP2 was “bona fide AHR ligands”. Also, the “stability in aqueous environment” value in data set [4] is “no obvious decomposition detected”. Further, the “ERα destabilization (immunoblot)” value in the data set with ERα in MCF-7 cells is “most proficient in destabilizing ERα”.
As for `Cc1cc(Cl)c2nc(-c3ccc(F)cc3)cn2c1` [X19724], the “thermal stabilization of AHR (nano-DSF)” value on AHR-Hsp90-XAP2 is given as “bona fide AHR ligands”. Also, the “ERα destabilization (immunoblot)” value in the data set with ERα in MCF-7 cells was “most proficient in destabilizing ERα”.
`Cc1cc(Cl)c2nc(-c3ccccc3)cn2c1` [X19728]: the “thermal stabilization of AHR (nano-DSF)” value at AHR-Hsp90-XAP2 is recorded as “bona fide AHR ligands”. Also, the “ERα destabilization (immunoblot)” value in the data set with ERα in MCF-7 cells is listed as “no significant ERα destabilization”. Also, the “expression of ERα target genes (RT-PCR)” value in data set [5] is “not significant in the presence of E2”.
